The source of these data is patent US5527809A, “Substituted imidazo[4,5-b]pyridines and benzimidazoles” (Bayer Aktiengesellschaft, priority 1993, dated 1996).

SMILES strings stand for the structures.

In experiment [1] the target is T1, angiotensin II receptor (Bos taurus, UniProt P25104).
T1 construct: partially purified membrane fractions of bovine AGC; from tissue; host or cells: bovine adrenal gland cortex, partially purified membrane fractions
T1 sequence (P25104 1-359): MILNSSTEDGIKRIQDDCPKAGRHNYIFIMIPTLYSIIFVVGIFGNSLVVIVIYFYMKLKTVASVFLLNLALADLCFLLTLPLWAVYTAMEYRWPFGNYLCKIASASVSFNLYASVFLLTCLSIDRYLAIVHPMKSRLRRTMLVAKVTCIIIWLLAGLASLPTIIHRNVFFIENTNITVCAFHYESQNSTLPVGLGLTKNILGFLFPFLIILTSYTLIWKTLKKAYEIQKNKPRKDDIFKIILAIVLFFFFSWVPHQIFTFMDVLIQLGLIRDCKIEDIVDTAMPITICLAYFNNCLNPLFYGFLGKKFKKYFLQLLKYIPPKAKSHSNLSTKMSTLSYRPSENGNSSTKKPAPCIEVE
In words: Interaction with the angiotensin II receptor in membrane fractions of the adrenal gland cortex (bovine), 3H-angiotensin II binding. The conditions noted are these: bovine adrenal gland cortex membranes; 3H-angiotensin II 3-5 nM; 60 min, room temperature; read-out: IC50 (50% inhibition of the specific binding of the radioligand). An excerpt:
Interaction of the compounds according to the invention with the angiotensin II receptor in membrane fractions of the adrenal gland cortex (bovine)
Bovine adrenal gland cortices (AGC), which have been freshly removed and carefully freed from medulla from capsule, are comminuted in sucrose solution (0.32M) with the aid of an Ultra-Turrax (Janke & Kunkel, Staufen i.B.) to give a coarse membrane homogenate and are partially purified in two centrifugation steps to give membrane fractions. The receptor binding investigations are carried out on partially purified membrane fractions of bovine AGC using radioactive angiotensin II in an assay volume of 0.25 ml, which specifically contains the partially purified membranes (50-80 μg), ^3 H-angiotensin II (3-5 nM), test buffer solution (50 mM Tris, pH 7.2), 5 mM MgCl2 and the substances to be investigated. After an incubation time of 60 min at room temperature, the unbound radioactivity of the samples is separated by means of moistened glass fibre filters (Whatman GF/C) and the bound radioactivity is measured […] in a scintillation cocktail after washing the protein with ice-cold buffer solution (50 mM Tris/HCl, pH 7.4, 5% PEG 6000). […]

The subject of experiment [2] is isolated rabbit aorta (contraction induced by angiotensin II). In words: Inhibition of the contraction induced by agonists in isolated rabbit aorta rings (angiotensin II). As to conditions: Oryctolagus cuniculus, based on the 3rd = submaximal agonist concentration, read-out: IC50 (50% inhibition of agonist-induced contraction). The method, then:
Investigation of the inhibition of the contraction induced by agonists
Rabbits of either sex are stunned by a blow to the back of the head and exsanguinated, or in some cases anaesthetized with Nembutal (about 60-80 mg/kg i.v.) and sacrificed by opening the thorax. The thoracic aorta is removed, freed from adhering connective tissue, divided into ring segments 1.5 mm wide and individually transferred under an initial loading of about 3.5 g to 10 ml organ baths containing Krebs-Henseleit nutrient solution, which is temperature-controlled at 37° C. and aerated with 95% 02 / 5% CO2, of the following composition: 119 mmol/l NaCl; 2.5 mmol/l CaCl2 ×2H2 O; 1.2 mmol/l KH2 PO4; 10 mmol/l glucose; 4.8 mmol/l KCl; 1.4 mmol/l MgSO4 ×7 H2 O and 25 mmol/l NaHCO3.
The contractions are detected isometrically by Statham UC2 cells by means of bridge amplifiers (ifd Mulheim or DSM Aalen) and digitalized and assessed by means of A/D converters (System 570, Keithley Munich). Agonist dose response curves (DRC) are carried out hourly. With each DRC, 3 or 4 individual concentrations are applied to the baths at a 4 min interval. After the end of the DRC and subsequent washing-out cycles (16 times in each case about 5 sec/min with the abovementioned nutrient solution), a 28-minute rest or incubation phase follows, during which the contractions as a rule reach the starting value again. […]

The test system of experiment [3] is smooth muscle cells. In words: Inhibition of the proliferation of smooth muscle cells (3H-thymidine incorporation). Format: cell-based. The conditions noted are these: rat aorta smooth muscle cells; thymidine incorporation produced by 10% FCS; read-out: IC50 (half-maximum inhibition of thymidine incorporation). The method, then:
Investigation of the inhibition of the proliferation of smooth muscle cells by the compounds according to the invention
To determine the antiproliferation action of the compounds, smooth muscle cells are used which are obtained from aortas of rats by the media explant technique [R. Ross, J. Cell. Biol. 50, 172, 1971]. The cells are inoculated in suitable culture dishes, as a rule 96-hole plates, and cultured in 5% CO2 at 37° C. for 2-3 days in medium 199 containing 7.5% FCS and 7.5% NCS, 2 mM L-glutamine and 15 mM HEPES, pH 7.4. The cells are then synchronized by withdrawal of serum for 2-3 days and then stimulated into growth with serum or other factors. Test compounds are simultaneously added. After 16-20 hours, 1 μCi of ^3 H-thymidine is added and after a further 4 hours the incorporation of this substance into the TCA-precipitatable DNA of the cells is determined. To determine the IC50 values, the active compound concentration is calculated which, on sequential dilution of the active compound, causes half-maximum inhibition of the thymidine incorporation produced by 10% FCS.
On the technique in general: Incorporation of labelled thymidine or its analogues reports DNA synthesis.

For `Cc1cc(C)c2nc(C3CC3)n(Cc3ccc(C(C(=O)O)C(C)C)cc3)c2n1` (centres unmarked) [Example 2], the IC50 in experiment [1] was 210 nM.
`Cc1ccc(S(=O)(=O)NC(=O)Cc2ccc(Cn3c(C4CC4)nc4c(C)cc(C)nc43)cc2)cc1` [Example 9]: the IC50 worked out at 61 nM in experiment [2] and 16 nM in experiment [1].
As to `O=C(N[C@H](CO)c1ccccc1)C(c1ccc(Cn2c(-c3ccccc3)nc3cccnc32)cc1)C1CCCCCC1` (some centres unmarked) [Example 14], the IC50 in experiment [3] is 120 nM.
For the compound `Cc1ccnc2c1nc(-c1ccccc1)n2Cc1ccc(C(C(=O)NC(C(N)=O)c2ccccc2)C2CCCCCC2)cc1` (centres unmarked) [Example 23], the IC50 in experiment [3] is 43 nM.
